Assay results from US6486199B1, “Spiro and dispiro 1,2,4-trioxolane antimalarials” (Medicines for Malaria Venture MMV International Centre …, priority 2001, dated 2002).
Converted amounts (≈) assume the structure as drawn. Like-named read-outs stand apart in the source and are kept apart here. Marks after values point to notes of the source that are not given here.

Tests used:
[1] = differential scanning calorimetry (DSC), thermal stability; assay type: physicochemical; conditions: thermal decomposition
[2] = system: chloroquine-sensitive NF54 strain of P. falciparum; assay: in vitro screen against chloroquine-sensitive NF54 strain of P. falciparum; assay type: cell-based; conditions: for IC50: Plasmodium falciparum, NF54, read-out: IC50 (ng/ml) NF54; for IC50 (ng/ml) NF54: in vitro, NF54 strain
[3] = system: ANKA strain of P. Berghei; assay: single dose STI in vivo screen in infected Moro SPF mice; conditions: for in vivo activity: 10 mg/kg po/sc data of Table 2; for Activity (%) po / Activity (%) sc: percent reduction in parasitemia day 3 post-infection; for Activity (%) po / Survival (days) po: single 10 mg/kg po; for Activity (%) sc / Survival (days) sc: single 10 mg/kg sc; for inhibition in vivo at 10 mg/kg: Plasmodium berghei, 72 h; for antimalarial activity, overall assessment: overall judgement of in vitro and in vivo data of Table 2
[4] = system: adult schistosomes (49-day-old) of Schistosoma mansoni; assay: effect on adult schistosomes (49-day-old) in mice; assay type: in vivo; conditions: single 400 mg/kg per os; for TWR (%): total worm reduction rate; for Mean total worm burden: x ± SD
Experimental: (§1) Mice were infected with 100 Schistosoma mansoni cercariae on day 49 post-treatment. Each group was treated per os with OZ compounds at a single dose of 400 mg/kg. Untreated mice served as the control. All groups were killed 4 weeks after treatment and the liver and intestine were removed and separated. The liver and intestine were compressed and alive male and female worms could be seen and counted.

[5] = system: chloroquine-resistant K1 strain of P. falciparum; assay: in vitro screen against chloroquine-resistant K1 strain of P. falciparum; assay type: cell-based; conditions: for IC50: Plasmodium falciparum, K1, read-out: IC50 (ng/ml) K1; for in vitro potency, fold less potent than the analog / IC50 (ng/ml) K1: in vitro; for IC50 (ng/ml) K1: K1 strain
[6] = system: 21-day-old schistosomules of Schistosoma mansoni; assay: effect on 21-day-old schistosomules in mice; assay type: in vivo; conditions: single 200 mg/kg per os; for FWR (%): female worm reduction rate; for Mean female worm burden: mean ± standard deviation; for TWR (%): total worm reduction rate
Experimental: as §1, with “Mice were infected with 100 Schistosoma mansoni cercariae on day 49 post-treatment.” left out, “200” for “400”, “counted. The effect of the compounds was evaluated by mean total and female worm burden.” for “counted.”

P. berghei [7] = assay: 1-day Peters test against P. berghei in vivo; conditions: for oral activity based on po ED50/ED90 values: ranking among trioxolanes and controls; for ED50 / ED90: Plasmodium berghei, 24 h; for ED90: read-out: P. berghei (1 day) ED90 po
[8] = system: adult schistosomes (49-day-old) of Schistosoma mansoni; assay: effect on adult schistosomes (49-day-old) in mice; assay type: in vivo; conditions: dose used was 200 mg/kg; for TWR (%): total worm reduction rate; for Mean total worm burden: x ± SD
P. berghei [9] = assay: 4-day Peters test against P. berghei in vivo; conditions: 4 day
parasitemia = assay: onset of drug action and recrudescence after single oral dose; assay type: in vivo; conditions: for Recrudescence (>5% parasitemia) occurs on day: single 100 mg/kg po on day +3 post-infection
Experimental: The reduction of parasitemia was monitored 12 h after treatment, and the time of recrudescence was assessed by daily blood smears for 14 days, followed by intermittent assessment for up to 30 days.

NB2a cell line = assay: neurotoxicity against the NB2a cell line; assay type: cell-based; conditions: NB2a cell line
[10] = po, read-out: P. berghei (1 day) ED50 po
[11] = sc, read-out: P. berghei (1 day) ED50 sc

Structure (SMILES) | Tm dec. (° C.) [1] | IC50 [2] | Percentage of dead worm [4] | Total dead worm [4] | TWR (%) [4] | Mean total worm burden [4] | IC50 [5] | FWR (%) [6] | Mean female worm burden [6] | TWR (%) [6] | P. berghei (1 day) ED90 sc (P. berghei [7]; sc) | further results
CC1(C)COC2(CCC3(CC2)OOC2(CC(C)(C)CC(C)(C)C2)O3)OC1 [OZ36, 2,2,4,4,14,14-Hexamethyl-7,12,16,19,20-pentaoxatrispiro[5.1.2.5.2.2]icosane] | 201.7 °C | 62 ng/mL (≈ 0.168 µM) | 0 | 0 | 0% | 40.2 ± 12.2 | 24 ng/mL (≈ 0.0651 µM) | 12% | 11.0 ± 4.0^a | 16% |  | in vivo activity [3]: all in vivo activity was lost; Activity (%) po [3]: 0/0%; Activity (%) sc [3]: 0/0%; Survival (days) po [3]: 5.7/5.7 days; Survival (days) sc [3]: 5.7/5.7 days; in vitro potency, fold less potent than the analog [5]: ~20 fold
CCOC(=O)N1CCC2(CC1)OOC1(O2)C2CC3CC(C2)CC1C3 (stereo not shown) [OZ23, Adamantane-2-spiro-3′-8′-ethoxycarbonyl-1′,2′,4′-trioxa-8′-azaspiro[4.5]decane] | 160.8 °C |  |  |  |  |  |  | 84% | 2.0 ± 1.0^b | 90% | NA/1.9 mg/kg | P. berghei (1 day) ED50 po (P. berghei [7]; po): 1.6 mg/kg; P. berghei (1 day) ED90 po (P. berghei [7]; po): 5.5 mg/kg; oral activity based on po ED50/ED90 values (P. berghei [7]; po): only slightly less orally active than OZ11; in vivo activity [3]: best in vivo activity; Percentage of dead worm [8]: 4 (5/124); Total dead worm [8]: 5; TWR (%) [8]: 0%; Mean total worm burden [8]: 39.7 ± 19.6; P. berghei (4 day) ED50 po (P. berghei [9]): 0.9 mg/kg; P. berghei (4 day) ED90 po (P. berghei [9]): 2.0 mg/kg; P. berghei (4 day) ED50 sc (P. berghei [9]): 0.5 mg/kg; P. berghei (4 day) ED90 sc (P. berghei [9]): 0.9 mg/kg
C[C@H]1[C@H](OC(=O)CCC(=O)O)O[C@@H]2O[C@@]3(C)CC[C@H]4[C@H](C)CC[C@@H]1[C@@]24OO3 [Artesunate, artesunate, reference compound] |  | 1.2 ng/mL (≈ 0.00312 µM) |  |  |  |  | 1.2 ng/mL (≈ 0.00312 µM) |  |  |  | 16 mg/kg | ED50 (P. berghei [7]; [10]): 5 mg/kg; ED90 (P. berghei [7]; po): 13 mg/kg; ED50 (P. berghei [7]; [11]): 0.86 mg/kg; Recrudescence (>5% parasitemia) occurs on day (parasitemia): 2 days; onset of action: decline in parasitemia (parasitemia; single 100 mg/kg po, monitored 12 h after treatment): rapid decline in parasitemia; inhibition in vivo at 10 mg/kg ([3]; po, read-out: Activity (%) po): 83.3%; inhibition in vivo at 10 mg/kg ([3]; sc, read-out: Activity (%) sc): 81.1%; Survival (days) po [3]: 7.1 days; Survival (days) sc [3]: 8.0 days
C1CCCCCC2(CCCCC1)OOC1(O2)C2CC3CC(C2)CC1C3 (stereo not shown) [OZ20, Adamantane-2-spiro-3′-1′,2′,4′-trioxaspiro[4.11]hexadecane] | 170.5 °C | 20 ng/mL (≈ 0.0574 µM) | 0 | 0 | 0% | 38.6 ± 3.6 | 15 ng/mL (≈ 0.043 µM) | 0% | 13.8 ± 5.5 | 0% | 10 mg/kg | ED50 (P. berghei [7]; [10]): 4.3 mg/kg; ED90 (P. berghei [7]; po): 9.7 mg/kg; ED50 (P. berghei [7]; [11]): 7.1 mg/kg; in vitro potency, fold less potent than the analog [5]: order of magnitude
c1ccc(C2CCC3(CC2)OOC2(O3)C3CC4CC(C3)CC2C4)cc1 (stereo not shown) [OZ27, Adamantane-2-spiro-3′-8′-phenyl-1′,2′,4′-trioxaspiro[4.5]decane] | 161.7 °C |  | 9.6 (15/157) | 15 | 19.6% | 28.4 ± 9.5^a |  | 58% | 5.2 ± 1.6^b | 63% | 3.1 mg/kg | P. berghei (1 day) ED50 po (P. berghei [7]; po): 1.9 mg/kg; P. berghei (1 day) ED90 po (P. berghei [7]; po): 3.2 mg/kg; P. berghei (1 day) ED50 sc (P. berghei [7]; sc): 1.8 mg/kg; oral activity based on po ED50/ED90 values (P. berghei [7]; po): only slightly less orally active than OZ11; IC50 (ng/ml) NF54 [2]: 4.8 ng/mL (≈ 0.0141 µM); duration of action compared with artemether (parasitemia; single 100 mg/kg po): longer; Recrudescence (>5% parasitemia) occurs on day (parasitemia): 11 days; antimalarial activity, overall assessment [3]: excellent activity; IC50 (ng/ml) K1 [5]: 2.2 ng/mL (≈ 0.00646 µM); P. berghei (4 day) ED50 po (P. berghei [9]): 1.3 mg/kg; P. berghei (4 day) ED90 po (P. berghei [9]): 2.6 mg/kg; P. berghei (4 day) ED50 sc (P. berghei [9]): 0.2 mg/kg; P. berghei (4 day) ED90 sc (P. berghei [9]): 0.9 mg/kg
O=[N+]([O-])c1ccc(NN=C2CCC3(CC2)OOC2(O3)C3CC4CC(C3)CC2C4)c([N+](=O)[O-])c1 (stereo not shown) [OZ29, Adamantane-2-spiro-3′-1′,2′,4′-trioxaspiro[4.5] decan-8′-one 2,4-dinitrophenylhydrazone] | 155.7 °C | 13 ng/mL (≈ 0.0284 µM) | 0 | 0 | 13.4% | 31.0 ± 13.7^a | 9.7 ng/mL (≈ 0.0212 µM) | 20% | 10.0 ± 3.7^a | 28% |  | Activity (%) po [3]: 0/0%; Activity (%) sc [3]: 0/0%; Survival (days) po [3]: 5.0/5.0 days; Survival (days) sc [3]: 5.0/5.0 days
OC1CCC2(CC1)OOC1(O2)C2CC3CC(C2)CC1C3 (stereo not shown) [OZ32, Adamantane-2-spiro-3′-8′-hydroxy-1′,2′,4′-trioxaspiro[4.5]decane] | 147.9 °C |  | 27.6 (50/181) | 50 | 26.8% | 26.2 ± 5.9^b |  | 70% | 3.8 ± 1.9^b | 73% | 2.1 mg/kg | P. berghei (1 day) ED50 po (P. berghei [7]; po): 1.9 mg/kg; P. berghei (1 day) ED90 po (P. berghei [7]; po): 13 mg/kg; P. berghei (1 day) ED50 sc (P. berghei [7]; sc): > 1 mg/kg; IC50 (ng/ml) NF54 [2]: 0.51 ng/mL (≈ 0.00182 µM); IC50 (ng/ml) K1 [5]: 0.25 ng/mL (≈ 0.000892 µM); P. berghei (4 day) ED50 po (P. berghei [9]): 2.6 mg/kg; P. berghei (4 day) ED90 po (P. berghei [9]): 5.1 mg/kg; P. berghei (4 day) ED50 sc (P. berghei [9]): 0.6 mg/kg; P. berghei (4 day) ED90 sc (P. berghei [9]): 1.3 mg/kg
CCOC(=O)CCC1CCCCC12OOC1(O2)C2CC3CC(C2)CC1C3 (stereo not shown) [OZ08, Adamantane-2-spiro-3′-6′-[2′-(ethoxycarbonyl)ethyl]-1′,2′,4′-trioxaspiro[4.5]decane] |  |  |  |  |  |  |  |  |  |  |  | antimalarial activity, overall assessment [3]: more active; IC50 (NB2a cell line): 42 µM
O=C1CCC2(CCO1)OOC1(O2)C2CC3CC(C2)CC1C3 (stereo not shown) [OZ17, Adamantane-2-spiro-3′-9′-oxo-1′,2′,4′,8′-tetraoxaspiro[4.6]undecane] | 158.4 °C |  | 5.2 (10/191) | 10 | 0% | 36.2 ± 13.8 |  | 7% | 11.6 ± 3.3^a | 23% |  | IC50 (ng/ml) NF54 [2]: > 100 ng/mL; IC50 (ng/ml) K1 [5]: 85 ng/mL (≈ 0.289 µM)
O=C1CCC2(CC1)OOC1(CCCCCCCCCCC1)O2 [OZ21, 3-Oxo-7,20,21-trioxadispiro[5.1.11.2]heneicosane] | 190.7 °C | 25 ng/mL (≈ 0.0805 µM) | 0 | 0 | 0% | 36.2 ± 9.0 | 14 ng/mL (≈ 0.0451 µM) | 0% | 15.0 ± 9.7 | 0% |  | in vivo activity [3]: all in vivo activity was lost; Activity (%) po [3]: 0/0%; Activity (%) sc [3]: 0/0%; in vitro potency, fold less potent than the analog [5]: 70 fold
O=C1C2C3CC4C5C3C1C5C1(OOC3(O1)C1CC5CC(C1)CC3C5)C42 (stereo not shown) [OZ14, Adamantane-2-spiro-3′-1′,2′,4′-trioxolane-5′-spiro-8″-11″-oxopentacyclo[5.4.0.0^2″,6″.0^3″,10″.0^5″,9″]undecane] | 113.3 °C |  |  |  |  |  |  | 0% | 12.4 ± 4.2 | 7% |  | Percentage of dead worm [8]: 0; Total dead worm [8]: 0; TWR (%) [8]: 0%; Mean total worm burden [8]: 44.5 ± 13.2
